Reference: patent US7763463B2, “Use of cyclic AMP and ascorbic acid to produce dopaminergic neurons from embryonic stem cells” (Geron Corporation, priority 2000, dated 2010)

Columns and labels:
Type in all cases: cell-based, human
hES cell derived neurons = test: Fura-2 imaging of calcium flux; details: of the 53 cells tested; cells responding to GABA, acetylcholine, ATP and elevated potassium; 0.5 mM neurotransmitter, ATP 10 μM
Procedure: Standard fura-2 imaging of calcium flux was used to investigate the functional properties of the hES cell derived neurons. Neurotransmitters studied included GABA, glutamate (E), glycine (G), elevated potassium (50 mM K^+ instead of 5 mM K^+), ascorbic acid (control), dopamine, acetylcholine (ACh) and norepinephrine. The solutions contained 0.5 mM of the neurotransmitter (except ATP at 10 μM) in rat Ringers (RR) solution: 140 mM NaCl, 3 mM KCl, 1 mM MgCl2, 2 mM CaCl2, 10 mM HEPES buffer, and 10 mM glucose. External solutions were set to pH 7.4 using NaOH. Cells were perfused in the recording chamber at 1.2-1.8 mL/min, and solutions were applied by bath application using a 0.2 mL loop injector located ˜0.2 mL upstream of the bath import. Transient rises in calcium were considered to be a response if the calcium levels rose above 10% of the baseline value within 60 sec of application, and returned to baseline within 1-2 min.

[1] = test system: embryoid bodies from hES cells; test: Embryoid bodies with or without retinoic acid, then NT-3/BDNF; MAP-2 staining; details: embryoid bodies maintained in 10 μM RA 4 days; then mitogens, then 10 ng/mL NT-3 and BDNF; without RA ~5%
Procedure: To generate terminally differentiated neurons, the first stage of differentiation was induced by forming embryoid bodies in FBS medium with or without 10 μM retinoic acid (RA). After 4 days in suspension, embryoid bodies were plated onto fibronectin-coated plates in defined medium supplemented with 10 ng/mL human EGF, 10 ng/mL human bFGF, 1 ng/mL human PDGF-AA, and 1 ng/mL human IGF-1. The embryoid bodies adhered to the plates, and cells began to migrate onto the plastic, forming a monolayer.
The cell populations were further differentiated by replating the cells in a medium containing none of the mitogens, but containing 10 ng/mL Neurotrophin-3 (NT-3) and 10 ng/mL brain-derived neurotrophic factor (BDNF). Neurons with extensive processes were seen after about 7 days. […] GaIC positive cells were identified, but the cells were large and flat rather than having complex processes.

hES cells of the H7 line = test: Direct differentiation: noggin, follistatin and retinoic acid (FIG. 6); details: 15 days with Treatment D, cAMP 700 μg; antagonists used for varying time periods
Excerpt: Noggin is apparently important at about the 1 week point (days 5 to 8), while follistatin is important at around the 2 week point (days 13 to 15), maximizing production of mature neurons rather than small neurites.
Virtually no β-tubulin positive neurons were formed in the absence of noggin or follistatin. […] It is hypothesized that initial noggin/follistatin induction generates a neural progenitor cell, which subsequently can be induced to form neurons by the addition of other factors.
Cells were differentiated according to treatment F as previously (left 2 bars) or omitting retinoic acid (right 2 bars).

hES cells = test: Effect of neurotrophins on direct differentiation, β-tubulin positive cell count; details: 7 days of differentiation; BDNF 10 ng/mL, neurotrophin-3 1 ng/mL
Procedure: The effect of several members of the neurotrophin growth factor family was examined. hES cells were differentiated by harvesting with collagenase, dissociating, and reseeding onto poly-ornithine coated cover slips. The cells were plated into DMEM/F12+N2+10% FBS overnight. The following day, the serum was removed from the medium and replaced with 10 ng/mL human bFGF and the growth factor being tested. After 24 hours, bFGF was removed from the medium. These cultures were fed every other day. They were fixed after 7 days of differentiation and immunostained for analysis. The number of neurons was evaluated by counting cells positive for β-tubulin. Cultures maintained in the presence of 10 ng/mL brain derived neurotrophic factor (BDNF) formed approximately 3-fold more neurons than the control cultures. Cultures maintained in neurotrophin-3 (1 ng/mL) formed approximately 2-fold more neurons than control cultures.

Molecule: Nc1ncnc2c1ncn2[C@@H]1O[C@H](COP(=O)(O)OP(=O)(O)OP(=O)(O)O)[C@@H](O)[C@H]1O [ATP]
- cells that responded (calcium rise) (hES cell derived neurons): 26

Molecule: NCCCC(=O)O [GABA, γ-amino butyric acid]
- cells that responded (calcium rise) (hES cell derived neurons): 26

Molecule: CC(=O)OCC[N+](C)(C)C [acetylcholine]
- cells that responded (calcium rise) (hES cell derived neurons): 26

Molecule: CC1=C(/C=C/C(C)=C/C=C/C(C)=C/C(=O)O)C(C)(C)CCC1 [retinoic acid]
- MAP-2 positive cells [1]: ~26%

B1: follistatin: TGF-β superfamily antagonist (protein, UniProt P19883 30-344, looked up)
Follistatin: GNCWLRQAKNGRCQVLYKTELSKEECCSTGRLSTSWTEEDVNDNTLFKWMIFNGGAPNCIPCKETCENVDCGPGKKCRMNKKNKPRCVCAPDCSNITWKGPVCGLDGKTYRNECALLKARCKEQPELEVQYQGRCKKTCRDVFCPGSSTCVVDQTNNAYCVTCNRICPEPASSEQYLCGNDGVTYSSACHLRKATCLLGRSIGLAYEGKCIKAKSCEDIQCTGGKKCLWDFKVGRGRCSLCDELCPDSKSDEPVCASDNATYASECAMKEAACSSGVLLEVKHSGSCNSISEDTEEEEEDEDQDYSFPISSILEW
- contribution to neuron differentiation (hES cells of the H7 line): contribute to neuron differentiation, and work synergistically

B2: noggin: TGF-β superfamily antagonist (protein, UniProt Q13253 28-232, looked up)
Noggin: QHYLHIRPAPSDNLPLVDLIEHPDPIFDPKEKDLNETLLRSLLGGHYDPGFMATSPPEDRPGGGGGAAGGAEDLAELDQLLRQRPSGAMPSEIKGLEFSEGLAQGKKQRLSKKLRRKLQMWLWSQTFCPVLYAWNDLGSRFWPRYVKVGSCFSKRSCSVPEGMVCKPSKSVHLTVLRWRCQRRGGQRCGWIPIQYPIISECKCSC
- contribution to neuron differentiation (hES cells of the H7 line): contribute to neuron differentiation, and work synergistically

B3: neurotrophin-3: member of the neurotrophin growth factor family (protein, UniProt P20783 139-257, looked up)
Neurotrophin-3: YAEHKSHRGEYSVCDSESLWVTDKSSAIDIRGHQVTVLGEIKTGNSPVKQYFYETRCKEARPVKNGCRGIDDKHWNSQCKTSQTYVRALTSENNKLVGWRWIRIDTSCVCALSRKIGRT
- neurons formed (β-tubulin positive cells) relative to control cultures (hES cells): approximately 2 fold

B4: BDNF: brain derived neurotrophic factor, member of the neurotrophin growth factor family (protein, UniProt P23560 19-247, looked up)
Neurotrophic factor BDNF …: APMKEANIRGQGGLAYPGVRTHGTLESVNGPKAGSRGLTSLADTFEHVIEELLDEDQKVRPNEENNKDADLYTSRVMLSSQVPLEPPLLFLLEEYKNYLDAANMSMRVRRHSDPARRGELSVCDSISEWVTAADKKTAVDMSGGTVTVLEKVPVSKGQLKQYFYETKCNPMGYTKEGCRGIDKRHWNSQCRTTQSYVRALTMDSKKRIGWRFIRIDTSCVCTLTIKRGR
- neurons formed (β-tubulin positive cells) relative to control cultures (hES cells): approximately 3 fold
